Source: ChEMBL document CHEMBL1148128, “Clathriol, a novel polyoxygenated 14beta steroid isolated from the New Zealand marine sponge Clathria lissosclera” (J Nat Prod, 2002)

Assays:
[1] = Antiinflammatory in rat peritoneal mast cell assessed as inhibition of histamine release at 30 uM; format: functional; set-up: scale not given: the % may be the effect or the level left
[2] = test system: PBMC; assay: Inhibition of PMA or fMLP-induced human PBMC activation assessed as superoxide production at 30 uM; format: functional; set-up: scale not given: the % may be the effect or the level left
[3] = Antiinflammatory in rat peritoneal mast cell assessed as inhibition of histamine release; format: functional, cell-based

SMILES | Activity [1] [%] | Activity [2] [%] | IC50 [3] [nM]
CC(C)C(CCC(C)[C@H]1CC(=O)[C@H]2[C@@H]3[C@@H](O)[C@H](O)[C@H]4C[C@@H](O)CC[C@]4(C)[C@H]3CC[C@]12C)C(C)O (stereo partly drawn) | 72 | 76 | 
CC(C)[C@@H]1CC(O)O[C@H](C(C)[C@H]2CC(=O)[C@H]3[C@@H]4[C@@H](O)[C@H](O)[C@H]5[C@@H](O)[C@H](O)CC[C@]5(C)[C@H]4CC[C@]23C)C1 (stereo partly drawn) |  |  | 800
